Experimental data published in patent US10519098B2, “Aromatic derivatives as anti-malarial” (Council of Scientific & Industrial Research, priority 2014, dated 2019).
Like-named read-outs stand apart in the source and are kept apart here.

Key:
[1] = test system: Chloroquine-sensitive (3D7) strain of P. falciparum; assay: Malaria SYBR Green I-based fluorescence (MSF) assay, 3D7 strain; type: cell-based; details: Plasmodium falciparum
Method: (§1) The stock (5 mg/mL or 10 mM) solutions of extracts were prepared in DMSO and required dilutions were made in culture medium.
(§2) Two-fold serial dilutions of test samples were made in 96 well plates and incubated with 1.0% parasitized cell suspension containing 0.8% parasitaemia (Asynchronous culture with more than 80% ring stages). The plates were incubated at 37° C. in CO2 incubator in an atmosphere of 5% CO2 and air mixture. 72 hours later 100 μL of lysis buffer containing 2× concentration of SYBR Green-I (Invitrogen) was added to each well and incubated for one hour at 37° C. The plates were examined at 485±20 nm of excitation and 530±20 nm of emission for relative fluorescence units (RFUs) per well using the fluorescence plate reader (FLX800, BIOTEK). IC50 values were obtained by Logit regression analysis of dose response curves (Singh et al. 2011).

in vitro = details: monkey
Method: The cells were incubated with test sample dilutions for 72 h and MTT was used as reagent for detection of cytotoxicity. Podophyllotoxin (SIGMA) was used as the standard reference drug.

[2] = test system: Chloroquine-resistant (K1) strain of P. falciparum; assay: Malaria SYBR Green I-based fluorescence (MSF) assay, K1 strain; type: cell-based; details: Plasmodium falciparum
Method: as §1, §2

[3] = P. falciparum 3D7, 72 hours incubation, read-out: IC50 against 3D7
[4] = P. falciparum K1, 72 hours incubation, read-out: IC50 against K1
[5] = 3D7, range given for listed compounds, read-out: IC50 values against 3D7 culture
[6] = K1, range given for listed compounds, read-out: IC50 values against K1 culture

| IC50 [1, 3] | melting point | IC50 [2, 4] | IC50 [1, 5] | IC50 [2, 6] | Structure (SMILES) | CC50 at 72 h (in vitro) | IC50 ([1]; 3D7, 72 h, read-out: IC50 against 3D7) | IC50 ([2]; K1, 72 h, read-out: IC50 against K1) |
| --- | --- | --- | --- | --- | --- | --- | --- | --- |
| > 5 µM | 112 to 114 °C | – | – | – | COc1ccccc1[C@H](CNC(=O)/C=C/c1ccccc1)OC(=O)/C=C/c1ccccc1 [Compound 10, (R)-2-cinnamamido-1-(2-methoxyphenyl)ethyl cinnamate] | 117 µM | – | – |
| > 5 µM | 137 to 139 °C | – | – | – | COc1ccc([C@@H](CNC(=O)/C=C/c2ccccc2)OC(=O)/C=C/c2ccccc2)cc1 [Compound 17, (S)-2-cinnamamido-1-(4-methoxyphenyl)ethyl cinnamate] | – | – | – |
| > 5 µM | 103 to 105 °C | – | – | – | Cc1ccc([C@H](COC(=O)/C=C/c2ccccc2)OC(=O)/C=C/c2ccccc2)cc1 [Compound 32, (R)-1-(p-tolyl) ethane-1,2-diyl (2E,2′E)-bis(3-phenylacrylate)] | > 200 µM | – | – |
| 7.42 µM | – | > 10 µM | – | – | O=C(/C=C/c1ccccc1)OC[C@H](OC(=O)/C=C/c1ccccc1)c1cccc2c1OCO2 [Compound 38, (R)-1-(benzo[d][1,3]dioxol-4-yl)ethane-1,2-diyl(2E,2′E)-bis(3-phenyl acrylate)] | > 200 µM | – | – |
| > 5 µM | 138 to 140 °C | – | – | – | COc1cccc([C@H](CNC(=O)/C=C/c2ccccc2)OC(=O)/C=C/c2ccccc2)c1 [Compound 14, (R)-2-cinnamamido-1-(3-methoxyphenyl)ethyl cinnamate] | 62.7 µM | – | – |
| > 5 µM | 105 to 108 °C | – | – | – | COc1cccc([C@@H](CNC(=O)/C=C/c2ccccc2)OC(=O)/C=C/c2ccccc2)c1OC [Compound 21, (S)-2-cinnamamido-1-(2,3-dimethoxyphenyl)ethyl cinnamate] | > 200 µM | – | – |
| > 10 µM | – | > 10 µM | – | – | CCCC(=O)NC[C@@H](OC(=O)CCC)c1ccc(OC)c(OC)c1 [Compound 45, (S)-2-butyramido-1-(3,4-dimethoxyphenyl)ethyl butyrate] | 51.8 µM | – | – |
| > 5 µM | 138 to 140 °C | – | – | – | COc1ccc([C@H](CNC(=O)/C=C/c2ccccc2)OC(=O)/C=C/c2ccccc2)cc1 [Compound 18, (R)-2-cinnamamido-1-(4-methoxyphenyl)ethyl cinnamate] | – | – | – |
| 3.37 µM | – | 3.47 µM | 2 to 7 µM | 1.5 to 4 µM | COc1cc([C@@H](COC(=O)/C=C/c2ccccc2)OC(=O)/C=C/c2ccccc2)cc(OC)c1OC [Compound 7, (S)-1-(3,4,5-trimethoxyphenyl)ethane-1,2-diyl(2E,2′E)-bis(3-phenyl acrylate)] | 6.44 µM | – | – |
| > 5 µM | – | – | – | – | COc1cccc([C@H](COC(=O)/C=C/c2ccccc2)OC(=O)/C=C/c2ccccc2)c1OC [Compound 24, (R)-1-(2,3-dimethoxyphenyl)ethane-1,2-diyl(2E,2′E)-bis(3-phenyl acrylate)] | 82.7 µM | – | – |
| > 5 µM | 93 to 96 °C | – | – | – | COc1ccc([C@@H](COC(=O)/C=C/c2ccccc2)OC(=O)/C=C/c2ccccc2)cc1 [Compound 19, (S)-1-(4-methoxyphenyl)ethane-1,2-diyl (2E,2′E)-bis(3-phenylacrylate)] | 33.5 µM | – | – |
| – | – | – | – | – | CCN(CC)CCCC(C)Nc1ccnc2cc(Cl)ccc12 (centres unmarked) [CQ, Chloroquine, reference compound] | – | 0.005 µM | 0.25 ± 0.02 µM |
| > 5 µM | – | – | – | – | COc1cccc([C@@H](COC(=O)/C=C/c2ccccc2)OC(=O)/C=C/c2ccccc2)c1OC [Compound 23, (S)-1-(2,3-dimethoxyphenyl)ethane-1,2-diyl (2E,2′E)-bis(3-phenyl acrylate)] | 28.4 µM | – | – |
| > 5 µM | – | – | – | – | COc1cc([C@H](COC(=O)/C=C/c2ccccc2)OC(=O)/C=C/c2ccccc2)cc(OC)c1OC [Compound 8, (R)-1-(3,4,5-trimethoxyphenyl)ethane-1,2-diyl (2E,2′E)-bis(3-phenyl acrylate)] | 122 µM | – | – |
| > 5 µM | 67 to 69 °C | – | – | – | COc1cccc([C@H](COC(=O)/C=C/c2ccccc2)OC(=O)/C=C/c2ccccc2)c1 [Compound 16, (R)-1-(3-methoxyphenyl)ethane-1,2-diyl (2E,2′E)-bis(3-phenylacrylate)] | 22.3 µM | – | – |
| > 5 µM | 132 to 134 °C | – | – | – | O=C(/C=C/c1ccccc1)OC[C@H](OC(=O)/C=C/c1ccccc1)c1ccccc1 [Compound 28, (R)-1-phenylethane-1,2-diyl (2E,2′E)-bis(3-phenylacrylate)] | 30.3 µM | – | – |
| > 5 µM | 200 to 202 °C | – | – | – | O=C(/C=C/c1ccccc1)NC[C@H](OC(=O)/C=C/c1ccccc1)c1ccc2c(c1)OCO2 [Compound 34, (R)-1-(benzo[d][1,3]dioxol-5-yl)-2-cinnamamidoethyl cinnamate] | > 200 µM | – | – |
| > 10 µM | – | > 10 µM | – | – | O=C(/C=C/c1ccccc1)OC[C@@H](OC(=O)/C=C/c1ccccc1)c1cccc2c1OCO2 [Compound 37, (S)-1-(benzo[d][1,3]dioxol-4-yl)ethane-1,2-diyl(2E,2′E)-bis(3-phenyl acrylate)] | > 200 µM | – | – |
| > 5 µM | 76 to 79 °C | – | – | – | COc1ccc([C@H](COC(=O)/C=C/c2ccccc2)OC(=O)/C=C/c2ccccc2)cc1 [Compound 20, (R)-1-(4-methoxyphenyl)ethane-1,2-diyl (2E,2′E)-bis(3-phenylacrylate)] | 23.3 µM | – | – |
| > 5 µM | 139 to 141 °C | – | – | – | COc1cccc([C@@H](CNC(=O)/C=C/c2ccccc2)OC(=O)/C=C/c2ccccc2)c1 [Compound 13, (S)-2-cinnamamido-1-(3-methoxyphenyl)ethyl cinnamate] | 148 µM | – | – |
| > 5 µM | – | – | – | – | COc1ccc([C@@H](COC(=O)/C=C/c2ccccc2)OC(=O)/C=C/c2ccccc2)cc1OC [Compound 3, (S)-1-(3,4-dimethoxyphenyl)ethane-1,2-diyl(2E,2′E)-bis(3-phenyl acrylate)] | 24.3 µM | – | – |
| > 5 µM | 108 to 110 °C | – | – | – | O=C(/C=C/c1ccccc1)OC[C@H](OC(=O)/C=C/c1ccccc1)c1ccc2c(c1)OCO2 [Compound 36, (R)-1-(benzo[d][1,3]dioxol-5-yl)ethane-1,2-diyl(2E,2′E)-bis(3-phenyl acrylate)] | 56.6 µM | – | – |
| > 5 µM | 106 to 107 °C | – | – | – | O=C(/C=C/c1ccccc1)OC[C@@H](OC(=O)/C=C/c1ccccc1)c1ccc2c(c1)OCO2 [Compound 35, (S)-1-(benzo[d][1,3]dioxol-5-yl)ethane-1,2-diyl(2E,2′E)-bis(3-phenyl acrylate)] | 31.8 µM | – | – |
| 3.8 µM | – | 3.23 µM | 2 to 7 µM | 1.5 to 4 µM | COc1ccccc1[C@@H](COC(=O)/C=C/c1ccccc1)OC(=O)/C=C/c1ccccc1 [Compound 11, (S)-1-(2-methoxyphenyl)ethane-1,2-diyl (2E,2′E)-bis(3-phenylacrylate)] | 14 µM | – | – |
| > 5 µM | 67 to 69 °C | – | – | – | COc1cccc([C@@H](COC(=O)/C=C/c2ccccc2)OC(=O)/C=C/c2ccccc2)c1 [Compound 15, (S)-1-(3-methoxyphenyl)ethane-1,2-diyl (2E,2′E)-bis(3-phenylacrylate)] | 61.9 µM | – | – |
| > 5 µM | – | – | – | – | COc1ccccc1[C@H](COC(=O)/C=C/c1ccccc1)OC(=O)/C=C/c1ccccc1 [Compound 12, (R)-1-(2-methoxyphenyl)ethane-1,2-diyl (2E,2′E)-bis(3-phenylacrylate)] | 51.7 µM | – | – |
| > 5 µM | 123 to 125 °C | – | – | – | COc1ccc([C@H](CNC(=O)/C=C/c2ccccc2)OC(=O)/C=C/c2ccccc2)cc1OC [Compound 2, (R)-2-cinnamamido-1-(3,4-dimethoxyphenyl)ethyl cinnamate] | 66.7 µM | – | – |
| > 5 µM | – | > 5 µM | – | – | COc1ccc([C@H](COC(=O)/C=C/c2ccccc2)OC(=O)/C=C/c2ccccc2)cc1OC [Compound 4, (R)-1-(3,4-dimethoxyphenyl)ethane-1,2-diyl (2E,2′E)-bis(3-phenyl acrylate)] | 5.87 µM | – | – |

| Structure (SMILES) | IC50 [1, 3] | melting point | IC50 [2, 4] | IC50 [1, 5] | IC50 [2, 6] | CC50 at 72 h (in vitro) | IC50 ([1]; 3D7, 72 h, read-out: IC50 against 3D7) | IC50 ([2]; K1, 72 h, read-out: IC50 against K1) |
| --- | --- | --- | --- | --- | --- | --- | --- | --- |
| COc1ccc([C@@H](CNC(=O)/C=C/c2cccc(O[Si](C)(C)C(C)(C)C)c2)OC(=O)/C=C/c2cccc(O[Si](C)(C)C(C)(C)C)c2)cc1OC [Compound 47, (S)-2-((E)-3-(3-((tert-butyldimethylsilyl)oxy)phenyl)acrylamido)-1-(3,4-dimethoxyphenyl)ethyl (E)-3-(3-((tert-butyldimethylsilyl)oxy)phenyl)acrylate] | > 10 µM | – | 7.52 µM | – | – | 52.6 µM | – | – |
| COc1ccc([C@@H](CNC(=O)/C=C/c2ccccc2O[Si](C)(C)C(C)(C)C)OC(=O)/C=C/c2ccccc2O[Si](C)(C)C(C)(C)C)cc1OC [Compound 46, (S)-2-((E)-3-(2-((tert-butyldimethylsilyl)oxy)phenyl)acrylamido)-1-(3,4-dimethoxyphenyl)ethyl (E)-3-(2-((tert-butyldimethylsilyl)oxy)phenyl)acrylate] | 8.49 µM | – | 4.56 µM | – | – | 58.9 µM | – | – |
